These are literature values, as cited in patent publication US20250073243A1, “LOW BACK PAIN TREATMENT” (Persica Pharmaceuticals Ltd., priority 2021, published 2025).

In brackets after ≈: the same amount, converted by molar mass.

The conditions of data set [1]: oral administration; patients with chronic LBP.

As to `CC(=O)NC[C@H]1CN(c2ccc(N3CCOCC3)c(F)c2)C(=O)O1` [linezolid, (S)—N-((3-(3-fluoro-4-morpholinophenyl)-2-oxooxazolidin-5-yl)methyl) acetamide], for the setting “standard 600 mg linezolid dose”, the “Cmax observed for a standard linezolid dose” value is “approximately 15 μg/ml”. In addition, the “half-life of standard linezolid administration” value (standard linezolid administration) is 4 to 5 h. The “minimum inhibitory concentration (MIC)” value with Gram-positive bacteria is 1 µg/mL (≈ 2.96 µM).
As for amoxicillin-clavulanate, the “improvement in outcome measures” value in data set [1] is “clinically important and statistically significant (p<0.001) improvement in all outcome measures”.
